Where two headings read alike, the source gives them in different places. Marks after values point to notes of the source that are not given here.
Tests used:
Experiment in all cases: Cell growth and viability (neutral red / sulforhodamine B) and morphology
Format in all cases: cell-based, human
[1] = tested on: 22Rv1 cells; settings: for IC50: 72 h, read-out: CI50 (the source's name)
Method: (§1) Each product (1 to 5) was applied for 1 to 72 hours, at various concentrations. The number of cells was compared with a control, namely cells cultured in the absence of the test compound.
(§2) The human prostate carcinoma cells DU145 and 22Rv1 were supplied by the American Type Culture Collection (ATCC, Rockville, Md.). The DU145 cells originate from a cerebral metastasic site and are not sensitive to androgens. The 22Rv1 cells originate from a prostate carcinoma and are sensitive to androgens. The cells were maintained in the form of a monolayer culture according to the usual techniques, in […] flasks (Corning), at 37° C., in an atmosphere containing 5% CO2 and at 95% humidity, in an RPMI-1640 medium free of phenol red and supplemented with 10% of heat-inactivated fetal calf serum and 1% of L-glutamine.
(§3) Five products were tested for this study and were stored protected from light, at +4° C. The β-sitosterol (product 1), obtained from Sigma Chemicals, was first dissolved in absolute ethanol, up to a final concentration of 24.1 mM. Product 2, supplied by Barry Callebaut, France, is a defatted cocoa extract containing 35.5% polyphenols and 0.081% β-sitosterol. Product 3 was reconstituted from products 1 and 2 and contained 35.5% polyphenols and 0.72% β-sitosterol. Products 4 and 5 were manufactured by Barry Callebaut, France. The composition of product 4 is unknown, and contains no β-sitosterol. Product 5 contains 35.27% polyphenols and 0.72% β-sitosterol. Products 2, 3, 4 and 5 were first dissolved in whole medium. As regards products 2, 4 and 5, the total polyphenols of the cocoa extracts originate from different countries.
(§4) Just before use, the final concentrations of products (table 1) used are prepared for the various experiments by means of stock solutions, by diluting the stock solution in whole medium. 64.2 μM of β-sitosterol is the maximum dose used in this solubility range and in the physiological range (4 to 70 μM). The absolute ethanol is at a constant concentration of 0.26% in the solvent-based control, in the negative control and in the 8 test concentrations. The ratios of the β-sitosterol and of the polyphenols for products 2, 3 and 5 are as follows: • Product 2:2:1000 • Product 3:2:100 • Product 5:2:100
(§5) The cells were inoculated on 96-well plates at an initial density of 15 000 cells/well for DU145, at an initial density of 30 000 cells/well for 22Rv1 and at an initial density of 25 000 cells/well for RWEP-1, with 200 μL of medium per well. The cell density was optimized as a function of the time required to double the population of cells, in order to obtain a significant measurement of the Optical Density (OD) and to be able to compare the various cells lines. After 24 hours, in order to ensure uniform fixing of the cells from the start of the experiments, the products were added to the cell cultures at various concentrations and at various times. After incubation with the products, the growth and viability of the cells was measured using neutral red (NR) and sulforhodamine B (SRB) combined (In Cytotox, Vandoeuvre, France). The absorption of the vital stain NR was used by the lysosomes/endosomes and by the vacuoles of the live cells as a quantitative indication of the number and viability of the cells after treatment with a chemical test. The anionic stain SRB made it possible to quantify the viable cells via measurement of the protein content of the cells.
(§6) The cytotoxicity was evaluated 1, 3, 6, 24, 48 and 72 hours after incubating the 22Rv1, RWEP-1 and DU145 cells with the products. The cells were washed with 200 μl of washing solution in order to remove the culture medium supplemented with the products. 200 μL of neutral red base medium was added and incubated with the cells at 37° C. for 3 hours. The neutral red base medium was then removed and the cells were washed twice with phosphate-buffered physiological saline (PBS). The cells were fixed for 1 minute with 200 μL of fixing solution. […]

[2] = tested on: DU145 cells
Method: as §1, §2, §3, §4, §5, §6

[3] = tested on: RWEP-1 cells
Method: as §1
The RPMI-1640 medium, the fetal calf serum and the L-glutamine were supplied by Gibco BRL (Cergy Pontoise, France). The cell cultures were replaced every 5 days to ensure exponential growth. The normal human prostate cells RWEP-1 were supplied by the American Type Culture Collection (ATCC, Rockville, Md.). The cells were maintained in the form of a monolayer culture according to the usual techniques, in […] flasks, at 37° C., in an atmosphere containing 5% CO2 and at 95% humidity, in a medium free of serum and of keratinocytes, supplemented with 2.5 μg of recombinant human EGF and 25 mg of calf pituitary extract. The medium was supplied by Gibco BRL (Cergy Pontoise, France).
as §3, §4, §5
as §6, with “(PBS).” for “(PBS). The cells were fixed for 1 minute with 200 μL of fixing solution.”

Compound: CC[C@H](CC[C@@H](C)[C@H]1CC[C@H]2[C@@H]3CC=C4C[C@@H](O)CC[C@]4(C)[C@H]3CC[C@]12C)C(C)C [β-sitosterol]
- Inhibition of lysosomial activity or protein synthesis ([1]; 22Rv1, 1, 3 and 6 hours of treatment): did not inhibit the lysosomial activity or protein synthesis
- Morphological alterations ([1]; 22Rv1, maximum concentration, up to 48 hours): No significant difference in terms of density and morphology
- max. inhibition ([1]; 24 h, 22RV1, NR): 49%
- max. inhibition ([1]; 24 h, 22RV1, SRB): 49%
- max. inhibition ([1]; 48 h, 22RV1, NR): 36%
- max. inhibition ([1]; 48 h, 22RV1, SRB): 47%
- IC50 ([1]; 22RV1, NR): 17.8 µM
- IC50 ([1]; 22RV1, SRB): 34 µM
- max. inhibition ([2]; 24 h, DU145, NR): 11%
- max. inhibition ([2]; 24 h, DU145, SRB): 42%
- max. inhibition ([2]; 48 h, DU145, NR): 21%
- max. inhibition ([2]; 48 h, DU145, SRB): 44%
- max. inhibition ([2]; 72 h, DU145, NR): 42%
- max. inhibition ([2]; 72 h, DU145, SRB): 40%
- Morphological alterations ([2]; DU145, maximum concentration, up to 48 hours): No significant difference was observed in terms of density and morphology
- IC50 ([2]; DU145, short-term and long-term treatments): did not induce an IC50
- max. inhibition ([3]; 24 h, RWEP1, NR): 15%^b
- max. inhibition ([3]; 24 h, RWEP1, SRB): 9%
- max. inhibition ([3]; 48 h, RWEP1, NR): 29%
- max. inhibition ([3]; 48 h, RWEP1, SRB): 48%
- max. inhibition ([3]; 72 h, RWEP1, NR): 11%
- max. inhibition ([3]; 72 h, RWEP1, SRB): 26%
- IC50 ([3]; RWEP-1, between 1 and 72 hours of treatment): never reached

— US8435576B2, “Use of cocoa polyphenols for treating a prostate hyperplasia, a specific cocoa extract and applications” (Barry Callebaut AG, priority 2005, dated 2013)
